A word on the IC50: it is the midpoint of a concentration-inhibition curve.

Holding throughout (type): cell-based
The test system of experiment [1] is AR target gene expression. Nature of the experiment: Quantitative RT-PCR of AR target genes in LNCaP cells. The note with it: 10 nM DHT, 16 h, compared among the six selected imidazopyridines. As for the experimental part:
MCF-7, T47D and LNCaP cells (5×10^4 each) were seeded in 6-well plates and cultured with hormone-depleted medium for 3 days. Subsequently, the MCF-7 and T47D cells were treated with 10 nM 17-β-estradiol (E2) or dihydrotestosterone (DHT) for the LNCaP cells, 1 µM) X15695 (for the MCF-7 and T47D cells) or 5 µM) for LNCaP cells and X15695 together with E2 or DHT. A 1 h pre-treatment with X15695 was performed prior to treatment with E2 or DHT for 16 h. RNA was extracted using innuPREP RNA mini Kit 2.0 (Analytic Jena, Berlin, Germany). 1 µg RNA per sample was used as input material for the RNA sample preparations. Sequencing libraries were generated using NEBNext® UltraTM RNA Library Prep Kit for Illumina® (NEB, USA) following the manufacturer's recommendations and index codes were added to attribute sequences to each sample. The clustering of the index-coded samples was performed on a cBot Cluster Generation System using PE Cluster Kit cBot-HS (Illumina) according to the manufacturer's instructions. After cluster generation, the library preparations were sequenced on an Illumina platform and paired-end reads were generated. Library preparation and sequencing were carried out by Novogene Europe, Cambridge, UK. […] Select target genes were analyzed by RT-PCR experiments with RNA from the samples used for the RNA-seq analysis. […]

The next experiment deals with MCF-7 cells. In words: FACS cell cycle analysis. The settings on record: 1 µM, 48 h, 7-AAD. The procedure: (§1) LNCaP, LAPC-4, MCF-7 and T47D cells were treated with 1 µM X15695 or DMSO for 48 h. Single cell suspensions (1×10^6 cells) were prepared in 150 µl PBS/10% FBS. Cells were fixed by addition of 5 ml ice-cold ethanol (70%) and over-night incubation at 4°C. Fixed LNCaP and LAPC-4 cells were stained with 20 µM DRAQ5 (5mM stock, Thermo Fisher Scientific) and incubated for 15 min at room temperature. Fixed MCF-7 and T47D cells were resuspended in PBS at concentration of 1×10^6 cells/100 µl and stained by addition of 5 µl of 7-AAD (BD Bioscience, San Diego, CA, USA) for 15 min at room temperature in the dark. Flow cytometry analysis was performed using BD FACSAria (BD Biosciences, Franklin Lakes, NJ, USA). Doublets and dead cells were excluded from the analysis. Flow cytometry data were analyzed using FlowJo 10.8.1 cytometry analysis software (FlowJo, LLC).

The next experiment concerns LAPC-4 cells. In words: FACS cell cycle analysis. The settings on record: 1 µM, 48 h, DRAQ5. The procedure:
as §1

The subject of the next experiment is LNCaP cells. Nature of the experiment: FACS cell cycle analysis. The note with it: 1 µM, 48 h, DRAQ5. The procedure:
as §1

Another experiment relates to T47D cells. Nature of the experiment: FACS cell cycle analysis. The note with it: 1 µM, 48 h, 7-AAD. As for the experimental part:
as §1

A further experiment deals with T1, BAG5 with mutant p53 (Homo sapiens, UniProt Q9UL15).
T1 construct: endogenous in cells; host or cells: T47D
T1 sequence (Q9UL15 whole entry, stated change not applied): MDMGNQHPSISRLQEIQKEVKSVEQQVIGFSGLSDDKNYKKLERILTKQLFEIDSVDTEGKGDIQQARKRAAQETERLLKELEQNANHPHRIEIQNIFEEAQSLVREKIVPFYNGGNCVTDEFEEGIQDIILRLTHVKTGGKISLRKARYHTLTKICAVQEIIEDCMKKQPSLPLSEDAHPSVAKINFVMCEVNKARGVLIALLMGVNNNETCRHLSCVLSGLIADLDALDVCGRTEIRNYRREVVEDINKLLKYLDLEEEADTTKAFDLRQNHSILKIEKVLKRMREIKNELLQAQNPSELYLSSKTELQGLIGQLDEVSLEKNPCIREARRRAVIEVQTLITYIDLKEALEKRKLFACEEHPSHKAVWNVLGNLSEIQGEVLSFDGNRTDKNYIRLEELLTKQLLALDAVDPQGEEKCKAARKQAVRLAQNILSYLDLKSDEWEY
Nature of the experiment: Co-immunoprecipitation in T47D cells. The note with it: 1 µM, 48 h. The procedure:
(§2) Cells were harvested, washed with PBS, and lysed using NP-40 lysis buffer. Protein A agarose beads (Thermo Fisher Scientific) were mixed with protein G agarose beads (Thermo Fisher Scientific) (4:1) and preincubated overnight at 4°C with anti-p53 or anti-BAG1 or control IgG antibody. Cellular extracts from X15695 treated and untreated cells (1,000 µg) were incubated with antibody-preincubated protein A/G agarose beads for 3 to 4 h at room temperature. The beads with immunoprecipitated proteins were collected at 4°C by centrifugation at 1,000 g for 5 min and washed 4 to 5 times with NP-40 lysis buffer. The immunoprecipitated proteins were eluted by heating in SDS sample buffer for 5 min at 95°C and resolved on SDS-PAGE. Thereafter, they were subjected to Western blot analysis to detect mortalin, BAG1, BAG2, BAG5 and p53. Cellular extracts containing 50 to 70 µg protein from X15695 treated and untreated cells were used as the input control for the targeted proteins.

The next experiment addresses T2, BAG2 with mutant p53 (Homo sapiens, UniProt O95816).
T2 construct: endogenous in cells; host or cells: T47D
Nature of the experiment: Co-immunoprecipitation in T47D cells. The settings on record: 1 µM, 48 h. As for the experimental part: as §2

The test system of another experiment is DU145. Nature of the experiment: Clonogenic assay (clonal expansion). The settings on record: Homo sapiens, DU-145; Prostate Cancer (DU145), AR-; inhibition of clonal expansion. As for the experimental part:
(§3) Cells were seeded at a density of 1-2×10^3 cells/well in a 6 well plate in RPMI 1640 supplemented with 10% FBS, penicillin (100 u/ml), streptomycin (100 u/ml), and L-glutamine (2 mM). Cells were treated with increasing concentrations of X15695 and cultured for 14 to 21 days. Medium and compounds were exchanged after 7 days. Cells were fixed with methanol/ acetic acid mixture (3:1 v/v) and the formation of colonies was visualized using 0.5% crystal violet (w/v) in 20% methanol (v/v). Plates were scanned in a conventional office scanner (Epson). The area covered by colonies was calculated using the ColonyArea Plugin for ImageJ.

A further experiment concerns PC3. Nature of the experiment: Clonogenic assay (clonal expansion). The settings on record: Homo sapiens; Prostate Cancer (PC3), AR-; inhibition of clonal expansion. The procedure:
as §3

For a further experiment, the system named is T47D. Nature of the experiment: Clonogenic assay (clonal expansion). The settings on record: Homo sapiens; Breast Cancer (T47D), ER+; inhibition of clonal expansion. As for the experimental part:
as §3

Another experiment relates to TRMCF-7 cells. In words: Clonogenic assay (clonal expansion). As for the experimental part:
as §3

For the next experiment, the system named is ZR75-1. Nature of the experiment: Clonogenic assay (clonal expansion). The note with it: Homo sapiens, ZR-75-1; Breast Cancer (ZR75-1), ER+; inhibition of clonal expansion. The procedure: as §3
Another experiment deals with 22Rv.1. Nature of the experiment: Clonogenic assay (clonal expansion). The note with it: Homo sapiens, 22Rv1; Prostate Cancer (22Rv.1), AR+; inhibition of clonal expansion. As for the experimental part: as §3
In another experiment the test system is LNCaP. In words: Clonogenic assay (clonal expansion). The note with it: Homo sapiens; Prostate Cancer (LNCaP), AR+; inhibition of clonal expansion. The procedure:
as §3

The test system of another experiment is A549. Nature of the experiment: Clonogenic assay (clonal expansion). The note with it: A549 (lung). As for the experimental part:
as §3

For another experiment, the system named is AR. In words: Western blot of AR level in prostate cancer cells. The note with it: LNCaP and 22Rv.1 cells, 24 h. For orientation: In western blotting, separated proteins are transferred to a membrane and probed.

T2 sequence (O95816 whole entry, stated change not applied): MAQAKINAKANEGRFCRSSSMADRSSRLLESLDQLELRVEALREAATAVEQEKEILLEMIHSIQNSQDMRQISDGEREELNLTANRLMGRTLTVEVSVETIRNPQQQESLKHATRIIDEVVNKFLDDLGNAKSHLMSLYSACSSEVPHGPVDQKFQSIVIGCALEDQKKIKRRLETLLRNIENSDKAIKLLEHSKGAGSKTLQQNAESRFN

Take `Fc1ccc(-c2cn3cc(C(F)(F)F)cc(Cl)c3n2)cc1` [Compound X15695, 8-Chloro-2-(4-fluorophenyl)-6-(trifluoromethyl)imidazo[1,2-a]pyridine]: the “attenuation of androgen-induced AR target gene expression” value in experiment [1] is recorded as “the compound with the most inhibitory activity”. For the same molecule, the cell cycle arrest entry in the experiment with MCF-7 cells was “G1/S phase arrest”; with LAPC-4 cells, “G2/M arrest”; in the experiment with LNCaP cells, “G1/S phase arrest”; in the experiment on T47D cells, “G2/M cell cycle arrest”. On BAG5 with mutant p53, the “interaction of BAG5 with mutant p53” value is “not BAG5”. In addition, the “interaction of BAG2 with mutant p53” value at BAG2 with mutant p53 is “disrupts the interaction of BAG2”. Besides, the IC50 in the experiment with DU145 was 1.34 µM; in the experiment with PC3, 2.04 µM; with T47D it was 0.0104 ± 0.0028 µM; with ZR75-1, 0.0073 ± 0.0016 µM; in the experiment with 22Rv.1 it was 0.0402 ± 0.0167 µM; with LNCaP, 0.0141 µM. In addition, the “inhibition of clonal expansion” value in the experiment with TRMCF-7 cells is listed as “active”. In the experiment on A549, the “effect on clonal expansion” value is listed as “did not have any effect”. Further, the AR level result in the experiment with AR is “did not strongly downregulate AR level”.

The values above are taken from patent EP4417202A1, “ANTI-CANCER ACTION OF BAG1-SELECTIVE IMIDAZOPYRIDINE COMPOUNDS IN STEROID HORMONE RECEPTOR-POSITIVE BREAST AND PROSTATE CANCER” (Karlsruher Institut für Technologie, priority 2023, dated 2024).
